Assay results taken from patent US20200187499A1, “SUBSTITUTED BENZYL-4-AMINOPICOLINIC ESTERS AND PYRIMIDINO-4-CARBOXYLIC ESTERS, METHODS FOR THE PRODUCTION THEREOF, AND USE THEREOF AS HERBICIDES AND PLANT GROWTH REGULATORS” (Bayer CropScience Aktiengesellschaft, priority 2017, published 2020).

Tests used:
Assay type in all cases: in vivo
[1] = tested on: POLCO; assay: Pre-emergence herbicidal action; details: Table 2, pre-emergence (PE), 320 g/ha, scored after 3 weeks
Summary of the method: (§1)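 Compounds were applied as aqueous suspension or emulsion to the soil surface over freshly covered seeds in sandy loam. After 3 weeks under greenhouse conditions, percent herbicidal effect was assessed visually against untreated plants.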

[2] = tested on: ECHCG; assay: Pre-emergence herbicidal action; details: Table 2, pre-emergence (PE), 320 g/ha, scored after 3 weeks
Summary of the method: as §1

[3] = tested on: ABUTH; assay: Pre-emergence herbicidal action; details: Table 2, pre-emergence (PE), 320 g/ha, scored after 3 weeks
Summary of the method: as §1

[4] = tested on: ALOMY; assay: Pre-emergence herbicidal action; details: Table 2, pre-emergence (PE), 320 g/ha, scored after 3 weeks
Summary of the method: as §1

[5] = tested on: SETVI; assay: Pre-emergence herbicidal action; details: Table 2, pre-emergence (PE), 320 g/ha, scored after 3 weeks
Summary of the method: as §1

[6] = tested on: AMARE; assay: Pre-emergence herbicidal action; details: Table 2, pre-emergence (PE), 320 g/ha, scored after 3 weeks
Summary of the method: as §1

[7] = tested on: VIOTR; assay: Pre-emergence herbicidal action; details: Table 2, pre-emergence (PE), 320 g/ha, scored after 3 weeks
Summary of the method: as §1

[8] = tested on: POLCO; assay: Post-emergence herbicidal action; details: Table 5, post-emergence (PO), 320 g/ha, assessed after about 3 weeks
Summary of the method: (§2)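 Visual percent herbicidal action (0% = like control, 100% = dead) was scored roughly 3 weeks after treatment. Compounds were sprayed post-emergence as aqueous WP/EC preparations, 600–800 l/ha water plus 0.2% wetting agent. Plants were at the one-leaf stage, 2–3 weeks after sowing in sandy loam, greenhouse-grown.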

[9] = tested on: ECHCG; assay: Post-emergence herbicidal action; details: Table 5, post-emergence (PO), 320 g/ha, assessed after about 3 weeks
Summary of the method: as §2

[10] = tested on: ABUTH; assay: Post-emergence herbicidal action; details: Table 5, post-emergence (PO), 320 g/ha, assessed after about 3 weeks
Summary of the method: as §2

[11] = tested on: STEME; assay: Post-emergence herbicidal action; details: Table 5, post-emergence (PO), 320 g/ha, assessed after about 3 weeks
Summary of the method: as §2

[12] = tested on: PHBPU; assay: Post-emergence herbicidal action; details: Table 5, post-emergence (PO), 320 g/ha, assessed after about 3 weeks
Summary of the method: as §2

[13] = tested on: SETVI; assay: Post-emergence herbicidal action; details: Table 5, post-emergence (PO), 320 g/ha, assessed after about 3 weeks
Summary of the method: as §2

[14] = tested on: AMARE; assay: Post-emergence herbicidal action; details: Table 5, post-emergence (PO), 320 g/ha, assessed after about 3 weeks
Summary of the method: as §2

[15] = tested on: VIOTR; assay: Post-emergence herbicidal action; details: Table 5, post-emergence (PO), 320 g/ha, assessed after about 3 weeks
Summary of the method: as §2

Row | Compound | Herbicidal action against POLCO [1] | Herbicidal action against ECHCG [2] | Herbicidal action against ABUTH [3] | Herbicidal action against ALOMY [4] | Herbicidal action against SETVI [5] | Herbicidal action against AMARE [6] | Herbicidal action against VIOTR [7] | Herbicidal action against POLCO [8] | Herbicidal action against ECHCG [9] | Herbicidal action against ABUTH [10] | Herbicidal action against STEME [11] | Herbicidal action against PHBPU [12] | Herbicidal action against SETVI [13] | Herbicidal action against AMARE [14] | Herbicidal action against VIOTR [15]
1 | Nc1cc(-c2ccc3ccsc3c2)nc(C(=O)OCc2ccccc2F)c1Cl [Example I-01] | 100% | 100% | 80% | 60% | 90% | 100% | 70% | 100% | 90% | 100% | 100% | 90% | 80% | 100% | 50%
2 | Nc1cc(-c2ccc3sccc3c2)nc(C(=O)OCc2ccc(C(F)(F)F)cc2)c1Cl [Example I-16] | 70% | 100% | 80% | 30% | 80% | 80% | 30% | 90% | 90% | 100% | 80% | 80% | 90% | 100% | 90%
